# Experimental data: US12404265B2, “Substituted pyridine derivatives as SARM1 inhibitors” (Nura Bio, Inc., priority 2020, dated 2025)
# Molecular target: T1, human SARM1(50-724) (Homo sapiens, UniProt Q6SZW1)
# T1 construct: 40 nM human SARM1(50-724)
# T1 sequence (Q6SZW1 50-724): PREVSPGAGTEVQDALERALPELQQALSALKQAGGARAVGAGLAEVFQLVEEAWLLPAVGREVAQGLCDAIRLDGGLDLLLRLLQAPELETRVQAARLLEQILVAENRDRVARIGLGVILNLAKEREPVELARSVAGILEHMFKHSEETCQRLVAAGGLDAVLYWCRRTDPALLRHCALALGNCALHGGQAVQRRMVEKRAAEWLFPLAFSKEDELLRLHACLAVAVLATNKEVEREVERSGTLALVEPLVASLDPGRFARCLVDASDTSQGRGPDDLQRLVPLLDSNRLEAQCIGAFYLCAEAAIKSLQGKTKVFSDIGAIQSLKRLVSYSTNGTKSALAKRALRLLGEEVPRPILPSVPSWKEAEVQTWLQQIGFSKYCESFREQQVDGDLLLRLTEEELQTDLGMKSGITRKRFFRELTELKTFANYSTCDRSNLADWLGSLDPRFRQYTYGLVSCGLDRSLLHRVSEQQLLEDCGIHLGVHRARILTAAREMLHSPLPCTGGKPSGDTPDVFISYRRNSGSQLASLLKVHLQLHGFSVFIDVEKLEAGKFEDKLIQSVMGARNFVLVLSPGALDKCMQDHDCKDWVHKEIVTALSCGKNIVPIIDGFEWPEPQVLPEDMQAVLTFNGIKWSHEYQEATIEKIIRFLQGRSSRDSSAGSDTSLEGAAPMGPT
# Test: SARM1 NADase biochemical assay (HPLC of NAD and NAM)
# Conditions: 40 nM human SARM1(50-724), 0.3 mM NMN, 20 μM NAD, 60 minutes room temperature; dose-response from 100 μM, 1:3 dilution
# How it was run: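 Human SARM1(50-724) at 40 nM with 0.3 mM NMN, 20 μM NAD, 1 mM TCEP in 25 mM HEPES pH 7.4, 10 mM KCl, 10 mM MgCl2, 1% DMSO; 60 min at room temperature, formic acid quench. NAD and NAM quantified by reverse-phase HPLC peak area; single point 50 μM or 1:3 series from 100 μM.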
row,SMILES,IC50 [µM]
1,"Cc1c(-c2ccncc2)n[nH]c1NC(=O)C1CC1c1ccc(Cl)cc1 (centres unmarked) [Example 135, 2-(4-Chlorophenyl)-N-(4-methyl-3-(pyridin-4-yl)-1H-pyrazol-5-yl)cyclopropane-1-carboxamide]",1 to 10
2,"Cc1c(-c2ccncc2)n[nH]c1NC(=O)C#Cc1ccc(Cl)cc1 [Example 72, 3-(4-Chlorophenyl)-N-(4-methyl-3-(pyridin-4-yl)-1H-pyrazol-5-yl)propiolamide]",1 to 10
3,"Cc1c(-c2ccncc2)n[nH]c1NC(=O)CCc1cc(F)c(Cl)cc1F [Example 40, 3-(4-Chloro-2,5-difluorophenyl)-N-(4-methyl-3-(pyridin-4-yl)-1H-pyrazol-5-yl)propanamide]",< 1
4,"Cc1c(NC(=O)CCc2cc(F)c(F)c(F)c2)cnn1-c1ccncc1 [Example 84, N-(5-Methyl-1-(pyridin-4-yl)-1H-pyrazol-4-yl)-3-(3,4,5-trifluorophenyl)propanamide]",< 1
5,"Cc1c(NC(=O)COc2ccc(Cl)cc2)cnn1-c1ccncc1 [Example 85, 2-(4-Chlorophenoxy)-N-(5-methyl-1-(pyridin-4-yl)-1H-pyrazol-4-yl)acetamide]",1 to 10
6,"CCc1ccc(CCC(=O)Nc2[nH]nc(-c3ccncc3)c2C)cc1 [Example 34, 3-(4-Ethylphenyl)-N-(4-methyl-3-(pyridin-4-yl)-1H-pyrazol-5-yl)propanamide]",1 to 10
7,O=C(CCc1ccc(Cl)cc1)Nc1nc(-c2ccncc2)c[nH]1 [Example 108],1 to 10
8,"Cc1c(-c2ccncc2)n[nH]c1NC(=O)/C(F)=C(\F)c1ccc(Cl)cc1 [Example 69, (E)-3-(4-chlorophenyl)-2,3-difluoro-N-(4-methyl-3-(pyridin-4-yl)-1H-pyrazol-5-yl)acrylamide]",1 to 10

# Other lines, results leading:
row,IC50 [µM],SMILES
1,< 1,"Cc1c(-c2ccncc2)n[nH]c1NC(=O)CCc1ccc(Cl)nc1 [Example 38, 3-(6-Chloropyridin-3-yl)-N-(4-methyl-3-(pyridin-4-yl)-1H-pyrazol-5-yl)propanamide]"
2,< 1,"Cc1c(-c2ccncc2)n[nH]c1NC(=O)CCc1cccc(Cl)c1 [Example 30, 3-(3-Chlorophenyl)-N-(4-methyl-3-(pyridin-4-yl)-1H-pyrazol-5-yl)propanamide]"
3,< 1,"Cc1c(-c2ccncc2)n[nH]c1NC(=O)NCc1ccc(C#N)cc1 [Example 141, 1-[(4-Cyanophenyl)methyl]-3-[4-methyl-3-(pyridin-4-yl)-1H-pyrazol-5-yl]urea]"
4,< 1,O=C(CCc1ccc(Cl)c(F)c1)Nc1[nH]nc(-c2ccncc2)c1CO [Example 118]
5,< 1,"Cc1c(-c2ccncc2)n[nH]c1NC(=O)CCc1ccc(C#N)cc1 [Example 36, 3-(4-Cyanophenyl)-N-(4-methyl-3-(pyridin-4-yl)-1H-pyrazol-5-yl)propanamide]"
6,< 1,Cc1cnccc1-c1n[nH]c(NC(=O)CCc2ccc(Cl)cc2)c1C [Example 110]
7,< 1,"Cc1c(-c2ccncc2)n[nH]c1NC(=O)CCc1ccc(Cl)c(Cl)c1 [Example 31, 3-(3,4-Dichlorophenyl)-N-(4-methyl-3-(pyridin-4-yl)-1H-pyrazol-5-yl)propanamide]"
8,< 1,"O=C(CCc1ccc(Cl)cc1)Nc1nnc(-c2ccncc2)[nH]1 [Example 162, 3-(4-Chlorophenyl)-N-(5-(pyridin-4-yl)-4H-1,2,4-triazol-3-yl)propanamide]"
9,< 1,"CCc1c(-c2ccncc2)n[nH]c1NC(=O)CCc1cc(F)c(C#N)c(F)c1 [Example 15, 3-(4-Cyano-3,5-difluorophenyl)-N-(4-ethyl-3-(pyridin-4-yl)-1H-pyrazol-5-yl)propanamide]"
